Values belong to the molecule of their own block, whether it stands above or below them.
Legend:
Type in all cases: cell-based
[1] = target: T1, human TASK-1 (Homo sapiens, UniProt O14649); assay: Two-electrode voltage clamp analysis of human TASK-1 channel in Xenopus laevis oocytes (B-1); set-up: expressed in transfected cells; host or cells: Xenopus laevis oocytes injected with cRNA; details: Xenopus laevis oocytes injected with TASK-1 cRNA, 21-22° C.
Description: (§1) B-1. In Vitro Electrophysiological Analysis of the Human TASK-1 and TASK-3 Channels via Two-Electrode Voltage Clamp Technique in Xenopus laevis Oocytes
(§2) Xenopus laevis oocytes were selected as described elsewhere by way of illustration [Decher et al., FEBS Lett. 492, 84-89 (2001)]. Subsequently, the oocytes were injected with 0.5-5 ng of a cRNA solution coding for TASK-1 or TASK-3. For the electrophysiological analysis of the channel proteins expressed in the oocytes, the two-electrode voltage clamp technique [Stühmer, Methods Enzymol. 207, 319-339 (1992)] was used. The measurements were conducted as described [Decher et al., FEBS Lett. 492, 84-89 (2001)] at room temperature (21-22° C.) using a Turbo TEC 10CD amplifier (NPI), recorded at 2 kHz and filtered with 0.4 kHz. Substance administration was performed using a gravitation-driven perfusion system. Here, the oocyte is located in a measuring chamber and exposed to the solution stream of 10 ml/min The level in the measuring chamber is monitored and regulated by sucking off the solution using a peristaltic pump.

[2] = target: T2, human TASK-3 (Homo sapiens, UniProt Q9NPC2); assay: Inhibition of recombinant TASK-3 in stably transfected CHO cells, KCl-induced depolarization, voltage-sensitive dye (B-2); set-up: expressed in transfected cells; host or cells: stably transfected CHO cells; details: depolarization induced by 40 mM potassium chloride, some mean values from multiple determinations
T2 sequence (Q9NPC2 whole entry): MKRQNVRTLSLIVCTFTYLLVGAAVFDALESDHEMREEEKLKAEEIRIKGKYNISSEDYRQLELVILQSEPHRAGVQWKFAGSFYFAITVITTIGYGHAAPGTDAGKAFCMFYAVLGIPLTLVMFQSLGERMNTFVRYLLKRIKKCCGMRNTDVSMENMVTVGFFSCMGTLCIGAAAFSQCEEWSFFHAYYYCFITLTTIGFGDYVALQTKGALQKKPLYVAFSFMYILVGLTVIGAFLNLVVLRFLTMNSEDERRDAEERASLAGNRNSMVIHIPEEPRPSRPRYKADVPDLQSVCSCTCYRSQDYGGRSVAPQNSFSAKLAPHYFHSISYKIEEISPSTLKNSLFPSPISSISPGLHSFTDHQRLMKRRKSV
Procedure, shortened: (§3)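 Stably transfected CHO cells loaded with a voltage-sensitive membrane potential dye. Depolarization was induced with 40 mM KCl, and compound inhibition of it was read by fluorescence. IC50 is the concentration blocking half of the KCl-induced depolarization; some values are means of multiple independent determinations.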

[3] = target: T2, human TASK-3; assay: Two-electrode voltage clamp analysis of human TASK-3 channel in Xenopus laevis oocytes (B-1); set-up: expressed in transfected cells; host or cells: Xenopus laevis oocytes injected with cRNA; details: Xenopus laevis oocytes injected with TASK-3 cRNA, 21-22° C.
Description: as §1, §2

[4] = target: T1, human TASK-1; assay: Inhibition of recombinant TASK-1 in stably transfected CHO cells, KCl-induced depolarization, voltage-sensitive dye (B-2); set-up: expressed in transfected cells; host or cells: stably transfected CHO cells; details: depolarization induced by 40 mM potassium chloride, some mean values from multiple determinations
Procedure, shortened: as §3

T1 sequence (O14649 whole entry): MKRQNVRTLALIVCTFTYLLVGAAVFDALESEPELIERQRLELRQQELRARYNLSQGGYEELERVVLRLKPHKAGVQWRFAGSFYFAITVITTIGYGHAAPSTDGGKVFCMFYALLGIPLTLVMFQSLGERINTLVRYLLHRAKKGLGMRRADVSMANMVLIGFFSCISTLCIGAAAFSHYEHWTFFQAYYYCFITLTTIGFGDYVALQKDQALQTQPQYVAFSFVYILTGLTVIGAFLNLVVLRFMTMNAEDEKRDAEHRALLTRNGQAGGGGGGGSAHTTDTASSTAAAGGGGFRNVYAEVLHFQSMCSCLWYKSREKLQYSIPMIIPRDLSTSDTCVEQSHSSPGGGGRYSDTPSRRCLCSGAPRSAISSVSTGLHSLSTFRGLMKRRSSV

SMILES: O=C(C1CCCO1)N1C2CC1CN(Cc1c(-c3ccc(Cl)cc3)nc3ccccn13)C2 (racemic) [Example 115]
- IC50 [1]: 22.8 ± 3.7 nM
- IC50 [2]: 2400 nM
- IC50 [3]: 186 ± 5.4 nM
- IC50 [4]: 4240 nM

- IC50 [2]: 4.5 nM
- IC50 [3]: 31.2 ± 5.8 nM
- IC50 [4]: 140 nM
SMILES: COc1ccc(F)c(C(=O)N2CC3CCC2CN3Cc2c(-c3ccc(Cl)cn3)nc3ccccn23)n1 (single isomer, unassigned; enantiomer 1) [Example 24, (5-{[2-(5-Chloropyridin-2-yl)imidazo[1,2-a]pyridin-3-yl]methyl}-2,5-diazabicyclo[2.2.2]oct-2-yl)(3-fluoro-6-methoxypyridin-2-yl)methanone (enantiomer 1)]

SMILES: CCN(C(=O)N1C2CCC1CN(Cc1c(-c3ccc(Cl)cc3)nc3ccccn13)C2)C1CCCCC1 [Example 175, 3-{[2-(4-Chlorophenyl)imidazo[1,2-a]pyridin-3-yl]methyl}-N-cyclohexyl-N-ethyl-3,8-diazabicyclo[3.2.1]octane-8-carboxamide]
- IC50 [2]: 200 nM
- IC50 [4]: 43 nM

SMILES: O=C(N1CCCC1)N1C2CCC1CN(Cc1c(-c3ccc(Cl)cc3)nc3ccccn13)C2 [Example 176, (3-([2-(4-Chlorophenyl)imidazo[1,2-a]pyridin-3-yl]methyl}-3,8-diazabicyclo[3.2.1]oct-8-yl)(pyrrolidin-1-yl)methanone]
- IC50 [2]: 10 nM
- IC50 [4]: 49 nM

SMILES: CCN(C(=O)N1C2CCC1CN(Cc1c(-c3ccc(Cl)cc3)nc3ccccn13)C2)c1ccccc1 [Example 177, 3-{[2-(4-Chlorophenyl)imidazo[1,2-a]pyridin-3-yl]methyl}-N-ethyl-N-phenyl-3,8-diazabicyclo[3.2.1]octane-8-carboxamide]
- IC50 [2]: 130 nM
- IC50 [4]: 4000 nM

SMILES: CC(C)N(C)C(=O)N1C2CCC1CN(Cc1c(-c3ccc(Cl)cc3)nc3ccccn13)C2 [Example 178, 3-{[2-(4-Chlorophenyl)imidazo[1,2-a]pyridin-3-yl]methyl}-N-isopropyl-N-methyl-3,8-diazabicyclo[3.2.1]octane-8-carboxamide]
- IC50 [2]: 17 nM
- IC50 [4]: 290 nM

SMILES: O=C(N1CCCCC1)N1C2CCC1CN(Cc1c(-c3ccc(Cl)cc3)nc3ccccn13)C2 [Example 179, (3-{[2-(4-Chlorophenyl)imidazo[1,2-a]pyridin-3-yl]methyl}-3,8-diazabicyclo[3.2.1]oct-8-yl)(piperidin-1-yl)methanone]
- IC50 [2]: 2.9 nM
- IC50 [4]: 270 nM

SMILES: CN(C)C(=O)N1C2CCC1CN(Cc1c(-c3ccc(Cl)cc3)nc3ccccn13)C2 [Example 180, 3-{[2-(4-Chlorophenyl)imidazo[1,2-a]pyridin-3-yl]methyl}-N,N-dimethyl-3,8-diazabicyclo[3.2.1]octane-8-carboxamide]
- IC50 [2]: 23 nM
- IC50 [4]: 220 nM

SMILES: CCN(C(=O)N1C2CCC1CN(Cc1c(-c3ccc(Cl)cc3)nc3ccccn13)C2)c1ccc(C)cc1 [Example 181, 3-{[2-(4-Chlorophenyl)imidazo[1,2-a]pyridin-3-yl]methyl}-N-ethyl-N-(4-methylphenyl)-3,8-diazabicyclo[3.2.1]octane-8-carboxamide]
- IC50 [2]: 1000 nM
- IC50 [4]: 4100 nM

SMILES: CC(C)N(C(=O)N1C2CCC1CN(Cc1c(-c3ccc(Cl)cc3)nc3ccccn13)C2)c1ccc(Cl)cc1 [Example 182, N-(4-Chlorophenyl)-3-{[2-(4-chlorophenyl)imidazo[1,2-a]pyridin-3-yl]methyl}-N-isopropyl-3,8-diazabicyclo[3.2.1]octane-8-carboxamide]
- IC50 [2]: 1000 nM
- IC50 [4]: 6100 nM

SMILES: O=C(N1CCSCC1)N1C2CCC1CN(Cc1c(-c3ccc(Cl)cc3)nc3ccccn13)C2 [Example 183, (3-{[2-(4-Chlorophenyl)imidazo[1,2-a]pyridin-3-yl]methyl}-3,8-diazabicyclo[3.2.1]oct-8-yl)(thiomorpholin-4-yl)methanone]
- IC50 [2]: 26 nM
- IC50 [4]: 450 nM

SMILES: COC(=O)N1C2CCC1CN(Cc1c(-c3ccc(Cl)cc3)nc3ccccn13)C2 [Example 184, Methyl 3-{[2-(4-chlorophenyl)imidazo[1,2-a]pyridin-3-yl]methyl}-3,8-diazabicyclo[3.2.1]octane-8-carboxylate]
- IC50 [2]: 72 nM
- IC50 [4]: 2900 nM

SMILES: O=C(OC1CCCC1)N1C2CCC1CN(Cc1c(-c3ccc(Cl)cc3)nc3ccccn13)C2 [Example 186, Cyclopentyl 3-{[2-(4-chlorophenyl)imidazo[1,2-a]pyridin-3-yl]methyl}-3,8-diazabicyclo[3.2.1]octane-8-carboxylate]
- IC50 [2]: 44 nM
- IC50 [4]: 730 nM

SMILES: O=C(OC1CCCCC1)N1C2CCC1CN(Cc1c(-c3ccc(Cl)cc3)nc3ccccn13)C2 [Example 187, Cyclohexyl 3-{[2-(4-chlorophenyl)imidazo[1,2-a]pyridin-3-yl]methyl}-3,8-diazabicyclo[3.2.1]octane-8-carboxylate]
- IC50 [2]: 200 nM
- IC50 [4]: 3800 nM

SMILES: CCN(CC)C(=O)N1C2COCC1CN(Cc1c(-c3ccc(Cl)cc3)nc3ccccn13)C2 [Example 188, 7-{[2-(4-Chlorophenyl)imidazo[1,2-a]pyridin-3-yl]methyl}-N,N-diethyl-3-oxa-7,9-diazabicyclo[3.3.1]nonane-9-carboxamide]
- IC50 [2]: 5.9 nM
- IC50 [4]: 60 nM

SMILES: O=C(N1CCOCC1)N1C2COCC1CN(Cc1c(-c3ccc(Cl)cc3)nc3ccccn13)C2 [Example 189, (7-{[2-(4-Chlorophenyl)imidazo[1,2-a]pyridin-3-yl]methyl}-3-oxa-7,9-diazabicyclo[3.3.1]non-9-yl)(morpholin-4-yl)methanone]
- IC50 [2]: 520 nM
- IC50 [4]: 8300 nM

SMILES: CC(C)N(C(=O)N1C2COCC1CN(Cc1c(-c3ccc(Cl)cc3)nc3ccccn13)C2)C(C)C [Example 190, 7-{[2-(4-Chlorophenyl)imidazo[1,2-a]pyridin-3-yl]methyl}-N,N-diisopropyl-3-oxa-7,9-diazabicyclo[3.3.1]nonane-9-carboxamide]
- IC50 [2]: 19 nM
- IC50 [4]: 170 nM

SMILES: CCN(C(=O)N1C2COCC1CN(Cc1c(-c3ccc(Cl)cc3)nc3ccccn13)C2)C1CCCCC1 [Example 191, 7-{[2-(4-Chlorophenyl)imidazo[1,2-a]pyridin-3-yl]methyl}-N-cyclohexyl-N-ethyl-3-oxa-7,9-diazabicyclo[3.3.1]nonane-9-carboxamide]
- IC50 [2]: 190 nM
- IC50 [4]: 9500 nM

SMILES: O=C(N1CCCC1)N1C2COCC1CN(Cc1c(-c3ccc(Cl)cc3)nc3ccccn13)C2 [Example 192, (7-{[2-(4-Chlorophenyl)imidazo[1,2-a]pyridin-3-yl]methyl}-3-oxa-7,9-diazabicyclo[3.3.l]non-9-yl)(pyrrolidin-1-yl)methanone]
- IC50 [2]: 73 nM
- IC50 [4]: 870 nM

SMILES: CCN(C(=O)N1C2COCC1CN(Cc1c(-c3ccc(Cl)cc3)nc3ccccn13)C2)c1ccccc1 [Example 193, 7-{[2-(4-Chlorophenyl)imidazo[1,2-a]pyridin-3-yl]methyl}-N-ethyl-N-phenyl-3-oxa-7,9-diazabicyclo[3.3.1]nonane-9-carboxamide]
- IC50 [2]: 100 nM
- IC50 [4]: 7100 nM

SMILES: CC(C)N(C)C(=O)N1C2COCC1CN(Cc1c(-c3ccc(Cl)cc3)nc3ccccn13)C2 [Example 194, 7-{[2-(4-Chlorophenyl)imidazo[1,2-a]pyridin-3-yl]methyl}-N-isopropyl-N-methyl-3-oxa-7,9-diazabicyclo[3.3.1]nonane-9-carboxamide]
- IC50 [2]: 290 nM
- IC50 [4]: 3000 nM

SMILES: CCOC(=O)N1C2COCC1CN(Cc1c(-c3ccc(Cl)cc3)nc3ccccn13)C2 [Example 195, Ethyl 7-{[2-(4-chlorophenyl)imidazo[1,2-a]pyridin-3-yl]methyl}-3-oxa-7,9-diazabicyclo[3.3.1]nonane-9-carboxylate]
- IC50 [2]: 8.1 nM
- IC50 [4]: 230 nM

SMILES: O=C(OC1CCCC1)N1C2COCC1CN(Cc1c(-c3ccc(Cl)cc3)nc3ccccn13)C2 [Example 196, Cyclopentyl 7-{[2-(4-chlorophenyl)imidazo[1,2-a]pyridin-3-yl]methyl}-3-oxa-7,9-diazabicyclo[3.3.1]nonane-9-carboxylate]
- IC50 [2]: 52 nM
- IC50 [4]: 440 nM

SMILES: CCCOC(=O)N1C2COCC1CN(Cc1c(-c3ccc(Cl)cc3)nc3ccccn13)C2 [Example 197, Propyl 7-{[2-(4-chlorophenyl)imidazo[1,2-a]pyridin-3-yl]methyl}-3-oxa-7,9-diazabicyclo[3.3.1]nonane-9-carboxylate]
- IC50 [2]: 13 nM
- IC50 [4]: 150 nM

SMILES: O=C(N1CCCCC1)N1C2COCC1CN(Cc1c(-c3ccc(Cl)cc3)nc3ccccn13)C2 [Example 198, (7-{[2-(4-Chlorophenyl)imidazo[1,2-a]pyridin-3-yl]methyl}-3-oxa-7,9-diazabicyclo[3.3.1]non-9-yl)(piperidin-1-yl)methanone]
- IC50 [2]: 60 nM
- IC50 [4]: 810 nM
